Laboratory results published in patent US20240382552A1, “COMPOSITION FOR PREVENTING, AMELIORATING OR TREATING SLEEP DISORDER OR INSOMNIA, CONTAINING EXTRACT OF ROASTED CITRUS BYPRODUCT AS ACTIVE INGREDIENT” (priority 2021, published 2024).
Structures can show the parent of a compound that is named as a salt. Marks after values point to notes of the source that are not given here.

What was measured:
[1] = tested on: mice to which a sleeping dose of pentobarbital (45 mg/kg, i.p.) was administered; assay: Pentobarbital-induced sleep test; conditions: pentobarbital 45 mg/kg i.p. 45 min after oral sample; DH 30 mg/kg, lime extracts 100 mg/kg, lemon extracts 300 mg/kg; n=10
[2] = tested on: C57BL/6N mice; assay: Sleep architecture analysis (EEG/EMG); type: in vivo; conditions: Example 1 100 mg/kg, Example 2 300 mg/kg, zolpidem 10 mg/kg p.o.
Protocol: After the accommodation period of 1 week, electrodes were inserted into the
C57BL/6N mice for measurement of electroencephalograms (EEGs) and electromyograms (EMGs). After anesthetizing the mouse with pentobarbital (50 mg/kg, i.p.), the head was fixed in a stereotaxic instrument. After incising the subcutaneous connective tissue, a mouse EEG/EMG Headmount (Pinnacle Technology Inc, Oregon, USA) was inserted for EEG and EMG recording. After fixing with dental cement followed by suturing and disinfection, antibiotics were injected for 3 days to prevent inflammation. The mice were allowed to recover for 7 days. For accommodation to the measurement environment, the recording apparatus was connected from 4 days prior to the measurement. After orally administering the sample and waiting for 5 minutes for sedation, EEG and EMG were recorded for 24 hours from 17:00 using PAL-8200 (Pinnacle Technology Inc., Oregon, USA). Sampling rate was set at 200 Hz (epoch time: 10 s). Filtering range was 0.1-25 Hz for EEG and 10-100 Hz for EMG. Sleep architecture was analyzed according to the fast Fourier transform (FFT) algorithm using SleepSign (Ver. 3.0, Kissei Comtec, Nagono, Japan).
Sleep architecture analysis was conducted to evaluate the effect of the roasted citrus byproduct extracts according to an exemplary embodiment of the present disclosure on the quantity and quality of sleep. […]

| SMILES | Sleep duration (min) [1] | Sleep latency (min) [1] | delta activity during non-REM sleep [2] | time after oral administration for which NREM sleep was significantly increased ([2]; 24 h EEG recording) [h] |
| --- | --- | --- | --- | --- |
| CN(C)CCC=C1c2ccccc2COc2ccccc21 [Doxepin hydrochloride (DH), Doxepin hydrochloride] | 121.2*** min | 2.9*** min |  |  |
| Cc1ccc(-c2nc3ccc(C)cn3c2CC(=O)N(C)C)cc1 [zolpidem] |  |  | significantly decreased delta activity | 6 |
